Laboratory results as given in patent US20070117743A1, “New antitumoral compounds” (priority 2003, published 2007).
Read-outs that look alike come from different tables or passages of the source. Where a SMILES comes first, the peptide text is derived from it. Bridges are numbered along the chain shown (N, C = ends). [ ]: non-standard residue; d: D form. The star is where a group is joined. d(aIle) = CC[C@H](C)[C@@H](N)C(=O)O; d(aThr) = C[C@@H](O)[C@@H](N)C(=O)O; hCha = N[C@@H](CCC1CCCCC1)C(=O)O; Hexanoyl(5-Me) = CC(C)CCCC(=O)*; Orn = NCCC[C@H](N)C(=O)O; Dhb = C/C=C(\N)C(=O)O

Experiments:
Assay type in all cases: cell-based, human
HeLa-APL = assay: SRB colorimetric assay of cell growth and viability, HeLa-APL; settings: 48 hours exposure; for CC50: read-out: LC50 HELA-APL
LoVo-Dox = assay: SRB colorimetric assay of cell growth and viability, LoVo-Dox; settings: 48 hours exposure; for CC50: read-out: LC50 LOVO-DOX
How it was run: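 Continuous 48-hour exposure of cells plated at 5×10^3 per well, with compounds diluted in DMSO:EtOH:PBS (0.5:0.5:99) over 10 to 10^−8 μg/mL. Staining with SRB and reading at 490 nm give GI, TGI and LC.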

SK-MEL-28 = assay: SRB colorimetric assay of cell growth and viability, SK-MEL-28; settings: 48 hours exposure; for CC50: read-out: LC50 MEL-28
PANC-1 = assay: SRB colorimetric assay of cell growth and viability, PANC-1; settings: 48 hours exposure; for CC50: read-out: LC50 PANC-1
HT-29 = assay: SRB colorimetric assay of cell growth and viability, HT-29; settings: 48 hours exposure; for GI50: read-out: GI50 HT-29; for CC50: read-out: LC50 HT-29
LNCaP = assay: SRB colorimetric assay of cell growth and viability, LNCaP; settings: 48 hours exposure; for GI50: read-out: GI50 LN-caP; for CC50: read-out: LC50 LN-caP
LoVo = assay: SRB colorimetric assay of cell growth and viability, LoVo; settings: 48 hours exposure; for CC50: read-out: LC50 LOVO
HeLa = assay: SRB colorimetric assay of cell growth and viability, HeLa; settings: 48 hours exposure; for CC50: read-out: LC50 HELA
IGROV-ET = assay: SRB colorimetric assay of cell growth and viability, IGROV-ET; settings: 48 hours exposure; for CC50: read-out: LC50 IGROV-ET
SK-BR-3 = assay: SRB colorimetric assay of cell growth and viability, SK-BR-3; settings: 48 hours exposure
A-549 = assay: SRB colorimetric assay of cell growth and viability, A-549; settings: 48 hours exposure; for GI50: read-out: GI50 A-549; for CC50: read-out: LC50 A-549
K-562 = assay: SRB colorimetric assay of cell growth and viability, K-562; settings: 48 hours exposure; for CC50: read-out: LC50 K-562
DU-145 = assay: SRB colorimetric assay of cell growth and viability, DU-145; settings: 48 hours exposure
IGROV-1 = assay: SRB colorimetric assay of cell growth and viability, IGROV-1; settings: 48 hours exposure

`C/C=C1\NC(=O)[C@H](Cc2ccccc2)NC(=O)[C@@H](C(C)C)NC(=O)[C@@H]([C@@H](C)CC)NC(=O)[C@H](NC(=O)[C@H](NC(=O)[C@H](CCCCN)NC(=O)[C@H]2CCCN2C(=O)[C@H](NC(=O)[C@@H](NC(=O)[C@@H](NC(=O)[C@H](NC(=O)CC[C@@H](C)CC)C(C)C)[C@@H](C)O)C(C)C)C(C)C)[C@@H](C)CC)[C@@H](C)OC(=O)[C@H](C(C)C)NC1=O` [Compound 30, [Lys^8, (4S)-MeHex^14]-KF] was tested, and the GI50 (HeLa-APL) was 677 nM, the “TGI HELA-APL” value (HeLa-APL) was 1.76E−06 Molar and the CC50 (HeLa-APL) was 4580 nM. For the same molecule, the GI50 (LoVo-Dox) was 164 nM, the “TGI LOVO-DOX” value (LoVo-Dox) was 3.24E−07 Molar and the CC50 (LoVo-Dox) was 639 nM. The GI50 (SK-MEL-28) was 1190 nM, the “TGI MEL-28” value (SK-MEL-28) was 2.39E−06 Molar and the CC50 (SK-MEL-28) was 4780 nM. The GI50 (PANC-1) was 2170 nM, the “TGI PANC-1” value (PANC-1) was 5.28E−06 Molar and the CC50 (PANC-1) was 6700 nM. For the same molecule, the “TGI HT-29” value (HT-29) was 2.99E−07 Molar, the GI50 (HT-29) was 173 nM and the CC50 (HT-29) was 517 nM. For the same molecule, the “TGI LN-caP” value (LNCaP) was 1.72E−06 Molar, the GI50 (LNCaP) was 804 nM and the CC50 (LNCaP) was 3680 nM. The GI50 (LoVo) was 135 nM, the “TGI LOVO” value (LoVo) was 2.45E−07 Molar and the CC50 (LoVo) was 444 nM. For the same molecule, the GI50 (HeLa) was 212 nM, the “TGI HELA” value (HeLa) was 5.42E−07 Molar and the CC50 (HeLa) was 2470 nM. For the same molecule, the GI50 (IGROV-ET) was 192 nM, the “TGI IGROV-ET” value (IGROV-ET) was 3.50E−07 Molar and the CC50 (IGROV-ET) was 637 nM. The GI50 (SK-BR-3) was 159 nM, the LC50 (SK-BR-3) was 579 nM and the “TGI SK-BR-3” value (SK-BR-3) was 3.04E−07 Molar. For the same molecule, the “TGI A-549” value (A-549) was 2.24E−06 Molar, the GI50 (A-549) was 1040 nM and the CC50 (A-549) was 4810 nM. For the same molecule, the GI50 (K-562) was 1020 nM, the “TGI K-562” value (K-562) was 2.28E−06 Molar and the CC50 (K-562) was 5070 nM. For the same molecule, the GI50 (DU-145) was 329 nM, the LC50 (concentration causing 50% net cell kill) (DU-145) was 4200 nM and the “TGI DU-145” value (DU-145) was 1.15E−06 Molar. The GI50 (IGROV-1) was 205 nM, the LC50 (concentration causing 50% net cell killing) (IGROV-1) was 1090 nM and the “TGI IGROV” value (IGROV-1) was 3.87E−07 Molar.
With `C/C=C1\NC(=O)[C@H](CCC2CCCCC2)NC(=O)[C@@H](C(C)C)NC(=O)[C@@H]([C@@H](C)CC)NC(=O)[C@H](NC(=O)[C@H](NC(=O)[C@H](CCCN)NC(=O)[C@H]2CCCN2C(=O)[C@H](NC(=O)[C@@H](NC(=O)[C@@H](NC(=O)[C@H](NC(=O)CCCC(C)C)C(C)C)[C@@H](C)O)C(C)C)C(C)C)[C@@H](C)CC)[C@@H](C)OC(=O)[C@H](C(C)C)NC1=O` [Compound 63, 5-MeHex-D-Val-Thr-Val-D-Val-D-Pro-Orn-D-allo-Ile-cyclo[D-allo-Thr-D-alo-Ile-D-Val-hCh-(Z)-Dhb-Val]] ({Hexanoyl(5-Me)}-[dV]TV[dV][dP][Orn][d(aIle)][d(aThr)][d(aIle)][dV][hCha][Dhb]V; ester 8-C) the GI50 (HeLa-APL; HELA-APL) was 292 nM, the “TGI HELA-APL” value (HeLa-APL; HELA-APL) was 1.09E−06 Molar and the CC50 (HeLa-APL; HELA-APL) was 3230 nM. For the same molecule, the GI50 (LoVo-Dox; LOVO-DOX) was 130 nM, the “TGI LOVO-DOX” value (LoVo-Dox; LOVO-DOX) was 2.56E−07 Molar and the CC50 (LoVo-Dox; LOVO-DOX) was 502 nM. The GI50 (SK-MEL-28; SRB) was 828 nM, the “TGI MEL-28” value (SK-MEL-28; SRB) was 1.77E−06 Molar and the CC50 (SK-MEL-28; SRB) was 3790 nM. For the same molecule, the GI50 (PANC-1; PANC-1) was 1050 nM, the “TGI PANC-1” value (PANC-1; PANC-1) was 2.10E−06 Molar and the CC50 (PANC-1; PANC-1) was 4210 nM. The “TGI HT-29” value (HT-29; HT-29) was 3.22E−07 Molar, the GI50 (HT-29; HT-29) was 132 nM and the CC50 (HT-29; HT-29) was 1130 nM. The “TGI LN-caP” value (LNCaP; SRB) was 1.21E−06 Molar, the GI50 (LNCaP; SRB) was 336 nM and the CC50 (LNCaP; SRB) was 2850 nM. The GI50 (LoVo; LOVO) was 122 nM, the “TGI LOVO” value (LoVo; LOVO) was 2.40E−07 Molar and the CC50 (LoVo; LOVO) was 469 nM. The GI50 (HeLa; HELA) was 175 nM, the “TGI HELA” value (HeLa; HELA) was 4.99E−07 Molar and the CC50 (HeLa; HELA) was 2060 nM. For the same molecule, the GI50 (IGROV-ET; SRB) was 76.1 nM, the “TGI IGROV-ET” value (IGROV-ET; SRB) was 2.01E−07 Molar and the CC50 (IGROV-ET; SRB) was 529 nM. The GI50 (SK-BR-3; SRB) was 74.8 nM, the LC50 (SK-BR-3; SRB) was 465 nM and the “TGI SK-BR-3” value (SK-BR-3; SRB) was 1.86E−07 Molar. The “TGI A-549” value (A-549; A-549) was 1.60E−06 Molar, the GI50 (A-549; A-549) was 728 nM and the CC50 (A-549; A-549) was 3480 nM. The GI50 (K-562; K-562) was 1480 nM, the “TGI K-562” value (K-562; K-562) was 2.63E−06 Molar and the CC50 (K-562; K-562) was 4690 nM. The GI50 (DU-145; SRB) was 119 nM, the LC50 (concentration causing 50% net cell kill) (DU-145; SRB) was 1550 nM and the “TGI DU-145” value (DU-145; SRB) was 4.25E−07 Molar. The GI50 (IGROV-1; SRB) was 128 nM, the LC50 (concentration causing 50% net cell killing) (IGROV-1; SRB) was 2000 nM and the “TGI IGROV” value (IGROV-1; SRB) was 4.29E−07 Molar.
